Values quoted from earlier work in patent US11819781B2, “Device for solid phase extraction and method for use thereof” (Waters Technologies Corporation, priority 2014, dated 2023).

Conditions: analyte characteristics; for Log P: octanol:water

In the case of CN(C)CCC=C1c2ccccc2CCc2ccccc21 [Amitriptyline], the pKa is listed as 9.7 and the “Log P” value is listed as 4.8.

For C[C@H]1C[C@H]2[C@@H]3CCC4=CC(=O)C=C[C@]4(C)[C@@]3(F)[C@@H](O)C[C@]2(C)[C@@]1(O)C(=O)CO [Betamethasone], the “Log P” value is listed as 1.1.

For CNCCCC1c2ccccc2C=Cc2ccccc21 [Protriptyline], the “Log P” value is listed as 4.4.
